Results published in patent US8188139B2, “Heterocyclic-substituted phenyl methanones” (Hoffman-La Roche Inc., priority 2005, dated 2012).

Target: T1, mGlyT-1b (Mus musculus, UniProt P28571)
T1 construct: host or cells: Flp-in-CHO
T1 sequence (P28571 1-651 isoform P28571-2): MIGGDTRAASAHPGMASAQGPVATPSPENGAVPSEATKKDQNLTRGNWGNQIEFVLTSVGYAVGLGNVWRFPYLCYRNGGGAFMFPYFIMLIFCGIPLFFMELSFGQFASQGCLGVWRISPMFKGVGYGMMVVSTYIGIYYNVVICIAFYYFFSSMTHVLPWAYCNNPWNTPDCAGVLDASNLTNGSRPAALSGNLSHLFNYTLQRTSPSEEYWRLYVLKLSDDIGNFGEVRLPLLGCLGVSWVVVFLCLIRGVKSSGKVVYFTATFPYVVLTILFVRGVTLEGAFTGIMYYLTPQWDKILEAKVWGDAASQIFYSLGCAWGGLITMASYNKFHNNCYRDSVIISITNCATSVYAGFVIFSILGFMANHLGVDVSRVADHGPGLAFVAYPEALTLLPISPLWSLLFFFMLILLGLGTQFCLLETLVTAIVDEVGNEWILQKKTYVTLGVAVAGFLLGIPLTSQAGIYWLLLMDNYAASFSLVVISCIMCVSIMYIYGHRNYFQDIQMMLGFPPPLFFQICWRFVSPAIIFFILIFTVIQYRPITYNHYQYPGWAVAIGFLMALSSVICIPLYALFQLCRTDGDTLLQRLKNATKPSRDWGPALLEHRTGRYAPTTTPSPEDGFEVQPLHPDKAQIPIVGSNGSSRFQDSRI
Test: Glycine uptake inhibition assay (mGlyT-1b)
Type: cell-based
Conditions: inhibition of [3H]-glycine uptake in Flp-in-CHO cells transfected with mGlyT-1b cDNA; 20 min preincubation at 22° C.; read-out: IC50 (μM) at GlyT-1
Method: DMEM complete medium: Nutrient mixture F-12 (Gibco Life-technologies), fetal bovine serum (FBS) 5%, (Gibco life technologies), Penicillin/Streptomycin1% (Gibco life technologies), Hygromycin 0.6 mg/ml (Gibco life technologies), Glutamine 1 mM Gibco life technologies)
Uptake buffer (UB): 150 mM NaCl, 10 mM Hepes-Tris, pH 7.4, 1 mM CaCl2, 2.5 mM KCl, 2.5 mM MgSO4, 10 mM (+) D-glucose.
Flp-in™-CHO (Invitrogen Cat n^o R758-07) cells stably transfected with mGlyT1b cDNA.
Glycine Uptake Inhibition Assay (mGlyT-1b)
On day 1 mammalian cells, (Flp-in™-CHO), transfected with mGlyT-1b cDNA, were plated at the density of 40,000 cells/well in complete F-12 medium, without hygromycin in 96-well culture plates. On day 2, the medium was aspirated, and the cells were washed twice with uptake buffer (UB). The cells were then incubated for 20 min at 22° C. with either (i) no potential competitor, (ii) 10 mM non-radioactive glycine, (iii) a concentration of a potential inhibitor. A range of concentrations of the potential inhibitor was used to generate data for calculating the concentration of inhibitor resulting in 50% of the effect (e.g. IC50, the concentration of the competitor inhibiting glycine uptake of 50%). A solution was then immediately added containing [^3H]-glycine 60 nM (11-16 Ci/mmol) and 25 μM non-radioactive glycine. The plates were incubated with gentle shaking, and the reaction was stopped by aspiration of the mixture and washing (three times) with ice-cold UB. The cells were lysed with scintillation liquid, shaken 3 hours, and the radioactivity in the cells was counted using a scintillation counter.

| IC50 | Compound |
| --- | --- |
| 0.034 µM | CS(=O)(=O)c1ccc(OCC2CCC2)c(C(=O)N2Cc3ccc(C4CCOCC4)cc3C2)c1 [Example 272, (2-Cyclobutyl-methoxy-5-methane-sulfonyl-phenyl)-[5-(tetrahydro-pyran-4-yl)-1,3-dihydro-isoindol-2-yl]-methanone] |
| 0.033 µM | CS(=O)(=O)c1ccc(-c2ccccc2)c(C(=O)N2Cc3cc(Cl)c(N4CCOCC4)cc3C2)c1 [Example 252, (5-Chloro-6-morpho-lin-4-yl-1,3-dihydro-isoindol-2-yl)-(4-methanesulfonyl-biphenyl-2-yl)-methanone] |
| 0.033 µM | C[C@H](Oc1ccc(S(C)(=O)=O)cc1C(=O)N1Cc2cc(Cl)c(N3C[C@@H]4C[C@H]3CO4)cc2C1)C(F)(F)F [Example 365, ((1S,4S)-5-Chloro-6-2-oxa-5-aza-bicyclo[2.2.1]hept-5-yl-1,3-dihydro-isoindol-2-yl)-[5-methanesulfonyl-2-((S)-2,2,2-trifluoro-1-methyl-ethoxy)-phenyl]-methanone] |
| 0.042 µM | CC(C)Oc1ccc(S(C)(=O)=O)cc1C(=O)N1Cc2cc(Cl)c(Cl)cc2C1 [Example 5, (5,6-Dichloro-1,3-dihydro-isoindol-2-yl)-(2-isopropoxy-5-methanesulfonyl-phenyl)-methanone] |
| 0.024 µM | C[C@H](Oc1ccc(S(C)(=O)=O)cc1C(=O)N1Cc2ccc(-c3cccnc3)cc2C1)C(F)(F)F [Example 317] |
| 0.042 µM | Cc1cc2c(cc1C(F)(F)F)CN(C(=O)c1cc(S(C)(=O)=O)ccc1O[C@@H](C)C(F)(F)F)C2 [Example 99, [5-Methanesulfonyl-2-((S)-2,2,2-trifluoro-1-methyl-ethoxy)-phenyl]-(5-methyl-6-trifluoromethyl-1,3-dihydro-isoindol-2-yl)-methanone] |
| 0.025 µM | COc1cccc(-c2ccc3c(c2)CN(C(=O)c2cc(S(C)(=O)=O)ccc2O[C@@H](C)C(F)(F)F)C3)c1 [Example 340, [5-Methanesulfonyl-2-(2,2,2-trifluoro-1-methyl-ethoxy)-phenyl]-[5-(3-methoxy-phenyl)-1,3-dihydro-isoindol-2-yl]-methanone] |
| 0.031 µM | CC(Oc1ccc(S(C)(=O)=O)cc1C(=O)N1Cc2cc(Cl)c(Cl)cc2C1)C(F)(F)F (racemic) [Example 9, rac-(5,6-Dichloro-1,3-dihydro-isoindol-2-yl)-[5-methanesulfonyl-2-(2,2,2-trifluoro-1-methyl-ethoxy)-phenyl]-methanone] |
| 0.017 µM | Cc1cc2c(cc1C1CCOCC1)CN(C(=O)c1cc(S(C)(=O)=O)ccc1O[C@@H](C)C(F)(F)F)C2 [Example 300] |
| 0.003 µM | CS(=O)(=O)c1ccc(OCC(F)(F)C(F)(F)F)c(C(=O)N2Cc3ccc(OC4CCOCC4)cc3C2)c1 [Example 374, [5-Methanesulfonyl-2-(2,2,3,3,3-pentafluoro-propoxy)-phenyl]-[5-(tetrahydro-pyran-4-yloxy)-1,3-dihydro-isoindol-2-yl]-methanone] |
| 0.037 µM | C[C@H](Oc1ccc(S(C)(=O)=O)cc1C(=O)N1Cc2cc(Cl)c(C3CCOCC3)cc2C1)C(F)(F)F [Example 305, [5-Chloro-6-(tetra-hydro-pyran-4-yl)-1,3-dihydro-isoindol-2-yl]-[5-methane-sulfonyl-2-((S)-2,2,2-trifluoro-1-methyl-ethoxy)-phenyl]-methanone] |
| 0.043 µM | C[C@H](Oc1ccc(S(C)(=O)=O)cc1C(=O)N1Cc2ccc(-n3cccn3)cc2C1)C(F)(F)F [Example 347] |
| 0.043 µM | C[C@H](Oc1ccc(S(C)(=O)=O)cc1C(=O)N1Cc2ccc(N3CCCC(F)(F)C3)cc2C1)C(F)(F)F [Example 287, [5-(3,3-Difluoro-piperidin-1-yl)-1,3-dihydro-isoindol-2-yl]-[5-methanesulfonyl-2-((S)-2,2,2-trifluoro-1-methyl-ethoxy)-phenyl]-methanone] |
| 0.03 µM | C[C@H](Oc1ccc(S(C)(=O)=O)cc1C(=O)N1Cc2ccc(-c3nccs3)cc2C1)C(F)(F)F [Example 172, [5-Methanesulfonyl-2-((S)-2,2,2-trifluoro-1-methyl-ethoxy)-phenyl]-(5-thiazol-2-yl-1,3-dihydro-isoindol-2-yl)-methanone] |
| 0.087 µM | CCc1cc2c(cc1C1CCOCC1)CN(C(=O)c1cc(S(C)(=O)=O)ccc1O[C@@H](C)C(F)(F)F)C2 [Example 306, [5-Ethyl-6-(tetrahydro-pyran-4-yl)-1,3-dihydro-isoindol-2-yl]-[5-methanesulfonyl-2-((S)-2,2,2-trifluoro-1-methyl-ethoxy)-phenyl]-methanone] |
| 0.015 µM | CC(C)Oc1ccc(S(C)(=O)=O)cc1C(=O)N1Cc2ccc(OC3CCOCC3)cc2C1 [Example 373, (2-Isopropoxy-5-methanesulfonyl-phenyl)-[5-(tetrahydro-pyran-4-yloxy)-1,3-dihydro-isoindol-2-yl]-methanone] |
| 0.022 µM | CC(C)Oc1ccc(S(C)(=O)=O)cc1C(=O)N1Cc2ccc(C3CCOC3)cc2C1 (racemic) [Example 360, rac-(2-Isopropoxy-5-methanesulfonyl-phenyl)-[5-(tetrahydro-furan-3-yl)-1,3-dihydro-isoindol-2-yl]-methanone] |
| 0.02 µM | C[C@H](Oc1ccc(S(C)(=O)=O)cc1C(=O)N1Cc2ccc(-c3ccsc3)cc2C1)C(F)(F)F [Example 330, [5-Methanesulfonyl-2-(2,2,2-trifluoro-1-methyl-ethoxy)-phenyl]-(5-thiophen-3-yl-1,3-dihydro-isoindol-2-yl)-methanone] |
| 0.008 µM | C[C@H](Oc1ccc(S(C)(=O)=O)cc1C(=O)N1Cc2ccc(C3CCOC3)cc2C1)C(F)(F)F (stereo partly drawn) [Example 304, [5-Methanesulfonyl-2-((S)-2,2,2-trifluoro-1-methyl-ethoxy)-phenyl]-[5-(tetra-hydro-furan-3-yl)-1,3-dihydro-isoindol-2-yl]-methanone] |
| 0.035 µM | CC(C)Oc1ccc(S(C)(=O)=O)cc1C(=O)N1Cc2cc(F)c(OC3CCOCC3)cc2C1 [Example 378, [5-Fluoro-6-(tetrahydro-pyran-4-yloxy)-1,3-dihydro-isoindol-2-yl]-(2-isopropoxy-5-methanesulfonyl-phenyl)-methanone] |
| 0.02 µM | C[C@H](Oc1ccc(S(C)(=O)=O)cc1C(=O)N1Cc2ccc(-c3cccs3)cc2C1)C(F)(F)F [Example 344] |
| 0.012 µM | C[C@@H](Oc1ccc(S(C)(=O)=O)cc1C(=O)N1Cc2ccc(C(F)(F)F)cc2C1)C(F)(F)F [Example 17, [5-Methanesulfonyl-2-((R)-2,2,2-trifluoro-1-methyl-ethoxy)-phenyl]-(5-trifluoromethyl-1,3-dihydro-isoindol-2-yl)-methanone] |
| 0.0015 µM | C[C@H](Oc1ccc(S(C)(=O)=O)cc1C(=O)N1Cc2ccc(OC3CCOCC3)cc2C1)C(F)(F)F [Example 367, [5-Methanesulfonyl-2-((S)-2,2,2-trifluoro-1-methyl-ethoxy)-phenyl]-[5-(tetrahydro-pyran-4-yloxy)-1,3-dihydro-isoindol-2-yl]-methanone] |
| 0.04 µM | COc1cc2c(cc1Cl)CN(C(=O)c1cc(S(C)(=O)=O)ccc1O[C@H](C)C(F)(F)F)C2 [Example 218, (5-Chloro-6-methoxy-1,3-dihydro-isoindol-2-yl)-[5-methane-sulfonyl-2-((R)-2,2,2-trifluoro-1-methyl-ethoxy)-phenyl]-methanone] |

| Compound | IC50 |
| --- | --- |
| COc1cc2c(cc1Cl)CN(C(=O)c1cc(S(C)(=O)=O)ccc1OCC(C)C)C2 [Example 221, (5-Chloro-6-methoxy-1,3-dihydro-isoindol-2-yl)-(2-isobutoxy-5-methanesulfonyl-phenyl)-methanone] | 0.022 µM |
| CC(C)COc1ccc(S(C)(=O)=O)cc1C(=O)N1Cc2cc(Cl)c(N3CCOCC3)cc2C1 [Example 248, (5-Chloro-6-morpho-lin-4-yl-1,3-dihydro-isoindol-2-yl)-(2-isobutoxy-5-methanesulfonyl-phenyl)-methanone] | 0.026 µM |
